According to patent US11312727B1, “Macrocyclic flu endonuclease inhibitors” (Janssen BioPharma, Inc., priority 2018, dated 2022):
pEC50: −log10 of the molar value.

How the values were obtained:
[1] = test system: Influenza strain A549 A/WSN/33 (H1N1); test: microbe, parasite or virus in culture; type: cell-based; conditions: Influenza A virus, A549, 20 h, A549 cells, influenza A/WSN/33 (H1N1), 20 hours incubation; read-out: A549_A(H1N1) EC50
[2] = in vitro; conditions: human, CC50, uninfected A549 cells, CellTiter-Glo

SMILES | pEC50 [1] | CC50 [2]
O=C1c2c(O)c(=O)ccn2N2CN1C[C@@H]1C[C@H]1COc1c(F)cccc1[C@H]2c1ccccc1 (single isomer, unassigned) [Compound 125AA, (1a*R,8*R,17a*R)-4-fluoro-14-hydroxy-8-phenyl-1a,2,17,17a-tetrahydro-1H,8H-9,16-methanobenzo[b]cyclopropa[k]pyrido[1,2-f][1]oxa[5,6,9]triazacyclotridecine-13,15-dione] | 7.29 | > 200 nM
O=C1c2c(O)c(=O)ccn2N2CN1C[C@H]1C[C@@H]1COc1c(F)cccc1[C@H]2c1ccccc1 (single isomer, unassigned) [Compound 125AB, (1a*R,8*S,17a*R)-4-fluoro-14-hydroxy-8-phenyl-1a,2,17,17a-tetrahydro-1H,8H-9,16-methanobenzo[b]cyclopropa[k]pyrido[1,2-f][1]oxa[5,6,9]triazacyclotridecine-13,15-dione] | 7.62 | > 200 nM
O=C1c2c(O)c(=O)ccn2N2CN1C[C@@H]1C[C@H]1COc1c(F)cccc1[C@@H]2c1ccccc1 (single isomer, unassigned) [Compound 125BA, (1a*S,8*R,17a*S)-4-fluoro-14-hydroxy-8-phenyl-1a,2,17,17a-tetrahydro-1H,8H-9,16-methanobenzo[b]cyclopropa[k]pyrido[1,2-f][1]oxa[5,6,9]triazacyclotridecine-13,15-dione] | < 7.00 | > 200 nM
O=C1c2c(O)c(=O)ccn2N2CN1C[C@H]1C[C@@H]1COc1c(F)cccc1[C@@H]2c1ccccc1 (single isomer, unassigned) [Compound 125BB, (1a*S,8*S,17a*S)-4-fluoro-14-hydroxy-8-phenyl-1a,2,17,17a-tetrahydro-1H,8H-9,16-methanobenzo[b]cyclopropa[k]pyrido[1,2-f][1]oxa[5,6,9]triazacyclotridecine-13,15-dione] | < 7.00 | > 200 nM
CC[C@H]1/C=C\COc2cc(F)c(F)c3c2[C@H](c2ccccc2SC3)N2CN1C(=O)c1c(O)c(=O)ccn12 (single isomer, unassigned) [Compound 126AA, (13*S,21a*R,Z)-13-ethyl-24,25-difluoro-16-hydroxy-6,10,13,21a-tetrahydro-7,8-(epiprop[1]en[1]yl[3]ylidene)-14,21-methanobenzo[6,7]thiepino[4,5-c]pyrido[1,2-f][1]oxa[5,6,9]triazacyclotridecine-15,17-dione] | < 7.00 | > 200 nM
CC[C@@H]1/C=C/COc2cc(F)c(F)c3c2[C@H](c2ccccc2SC3)N2CN1C(=O)c1c(O)c(=O)ccn12 (single isomer, unassigned) [Compound 126AB, (9*R,17a*R,E)-9-ethyl-24,25-difluoro-12-hydroxy-2,6,9,17a-tetrahydro-3,4-(epiprop[1]en[1]yl[3]ylidene)-10,17-methanobenzo[6,7]thiepino[4,5-c]pyrido[1,2-f][1]oxa[5,6,9]triazacyclotridecine-11,13-dione] | < 7.00 | > 200 nM
CC[C@H]1/C=C/COc2cc(F)c(F)c3c2[C@@H](c2ccccc2SC3)N2CN1C(=O)c1c(O)c(=O)ccn12 (single isomer, unassigned) [Compound 126BA, (9*S,17a*S,E)-9-ethyl-24,25-difluoro-12-hydroxy-2,6,9,17a-tetrahydro-3,4-(epiprop[1]en[1]yl[3]ylidene)-10,17-methanobenzo[6,7]thiepino[4,5-c]pyrido[1,2-f][1]oxa[5,6,9]triazacyclotridecine-11,13-dione] | 9.64 | > 50 nM
CC[C@@H]1/C=C\COc2cc(F)c(F)c3c2[C@@H](c2ccccc2SC3)N2CN1C(=O)c1c(O)c(=O)ccn12 (single isomer, unassigned) [Compound 126BB, (13*R,21a*S,Z)-13-ethyl-24,25-difluoro-16-hydroxy-6,10,13,21a-tetrahydro-7,8-(epiprop[1]en[1]yl[3]ylidene)-14,21-methanobenzo[6,7]thiepino[4,5-c]pyrido[1,2-f][1]oxa[5,6,9]triazacyclotridecine-15,17-dione] | 9.00 | > 200 nM
O=C1c2c(O)c(=O)ccn2N2CN1C[C@H]1C[C@@H]1COc1cc(F)c(F)c3c1[C@@H]2c1ccccc1SC3 (single isomer, unassigned) [Compound 127AA, (1a*S,11b*S,20a*S)-22,23-difluoro-17-hydroxy-1a,2,6,11b,20,20a-hexahydro-1H-5,4-(epiprop[1]en[1]yl[3]ylidene)-12,19-methanobenzo[6,7]thiepino[4,5-c]cyclopropa[k]pyrido[1,2-f][1]oxa[5,6,9]triazacyclotridecine-16,18-dione] | 8.82 | > 200 nM
O=C1c2c(O)c(=O)ccn2N2CN1C[C@H]1C[C@@H]1COc1cc(F)c(F)c3c1[C@H]2c1ccccc1SC3 (single isomer, unassigned) [Compound 127BA, (1a*S,11b*R,20a*S)-22,23-difluoro-17-hydroxy-1a,2,6,11b,20,20a-hexahydro-1H-5,4-(epiprop[1]en[1]yl[3]ylidene)-12,19-methanobenzo[6,7]thiepino[4,5-c]cyclopropa[k]pyrido[1,2-f][1]oxa[5,6,9]triazacyclotridecine-16,18-dione] | 8.85 | > 200 nM
CC(C)[C@@H]1/C=C/COc2c(ccc(F)c2F)[C@@H](c2ccccc2)N2CN1C(=O)c1c(O)c(=O)ccn12 (single isomer, unassigned) [Compound 128AA, (9*R,18*R,*E)-3,4-difluoro-12-hydroxy-9-isopropyl-18-phenyl-6,9-dihydro-18H-10,17-methanobenzo[b]pyrido[1,2-f][1]oxa[5,6,9]triazacyclotridecine-11,13-dione] | < 7.00 | > 200 nM
CC(C)[C@H]1/C=C/COc2c(ccc(F)c2F)[C@@H](c2ccccc2)N2CN1C(=O)c1c(O)c(=O)ccn12 (single isomer, unassigned) [Compound 128AB, (9*S,18*R,*E)-3,4-difluoro-12-hydroxy-9-isopropyl-18-phenyl-6,9-dihydro-18H-10,17-methanobenzo[b]pyrido[1,2-f][1]oxa[5,6,9]triazacyclotridecine-11,13-dione] | 7.19 | > 200 nM
CC(C)[C@@H]1/C=C/COc2c(ccc(F)c2F)[C@H](c2ccccc2)N2CN1C(=O)c1c(O)c(=O)ccn12 (single isomer, unassigned) [Compound 128BA, (9*R,18*S,*E)-3,4-difluoro-12-hydroxy-9-isopropyl-18-phenyl-6,9-dihydro-18H-10,17-methanobenzo[b]pyrido[1,2-f][1]oxa[5,6,9]triazacyclotridecine-11,13-dione] | < 7.00 | > 200 nM
CC(C)[C@H]1/C=C/COc2c(ccc(F)c2F)[C@H](c2ccccc2)N2CN1C(=O)c1c(O)c(=O)ccn12 (single isomer, unassigned) [Compound 128BB] | 8.41 | > 200 nM
O=C1c2c(O)c(=O)ccn2N2CN1C/C=C\COc1c(cccc1C(F)(F)F)[C@H]2c1ccccc1 (single isomer, unassigned) [Compound 130A, (18*R,Z)-12-hydroxy-18-phenyl-4-(trifluoromethyl)-6,9-dihydro-18H-10,17-methanobenzo[b]pyrido[1,2-f][1]oxa[5,6,9]triazacyclotridecine-11,13-dione] | 8.32 | > 200 nM
